In the supplement of paper PMC10011410:
± gives the standard deviation of the averaged measurements.

Columns and labels:
U-2 OS [1] = assay: intracellular GSH:GSSG ratio (calculated); higher = more reduced glutathione pool; conditions: 24 h
Method: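 Intracellular glutathione in U-2 OS cells after 24 h compound treatment at 5, 10 and 20 uM (some at 40 and 80 uM). Total glutathione and GSSG were measured with the GSH/GSSG-Glo kit, and the GSH:GSSG ratio was calculated. Mean of five technical replicate plates.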

U-2 OS [2] = assay: cell viability (CellTiter-Glo) relative to DMSO (% of control); higher = more viable; conditions: 24 h
Method: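 Cell viability of U-2 OS cells by CellTiter-Glo after 24 h compound treatment at 5, 10 and 20 uM (some at 40 and 80 uM), measured in parallel with the glutathione assay, as percent of DMSO control. Five technical replicate plates, averaged.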

U-2 OS [3] = assay: total intracellular glutathione (GSH + GSSG) relative to DMSO (% of control); higher = more glutathione; conditions: 24 h
Method: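 Total intracellular glutathione (GSH + GSSG) in U-2 OS cells by GSH/GSSG-Glo after 24 h compound treatment at 5, 10 and 20 uM (some at 40 and 80 uM), as percent of DMSO control. Five technical replicate plates, averaged.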

U-2 OS [4] = assay: cell painting activity score (Mahalanobis distance from DMSO wells); higher = stronger morphological phenotype; conditions: 24 h
How it was run: (§1)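 In this cell painting assay, roughly 1,500 U-2 OS cells per well in 384-well plates were pin-tool treated at 37 °C for 24 h, typically at six 2-fold steps from 20 μM down to 625 nM. Cells were stained with MitoTracker, concanavalin A, phalloidin, wheat germ agglutinin, Hoechst and SYTO 14, imaged on an Opera Phenix, and analysed in CellProfiler with normalization to same-plate DMSO cells. Reported values are means of four replicate plates, with the activity score defined as the Mahalanobis distance from DMSO wells and cell count defined relative to DMSO wells.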

U-2 OS [5] = assay: relative cell count vs DMSO (cell painting) (fraction of DMSO control); higher = more cells remaining (less cytotoxic); conditions: 24 h
How it was run: as §1

U-2 OS [6] = assay: AUC of culture confluence over time (live-cell imaging) (AUC (confluence % x time)); higher = more confluent culture (less growth inhibition)
How it was run: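 Live-cell imaging tracked confluence of U-2 OS cells grown in F-12K medium plus 10% FBS. After seeding at 750 cells per well in 384-well plates, cells received compounds by pin tool 24 h later, mostly at 20, 10 and 5 μM, with 0.2% DMSO. Plates stayed at 37 °C and were imaged every 4 h for up to 60 h. Each value is the area under the confluence-versus-time curve.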

Row | SMILES | intracellular GSH:GSSG ratio (U-2 OS [1]; 5 µM) | intracellular GSH:GSSG ratio (U-2 OS [1]; 10 µM) | intracellular GSH:GSSG ratio (U-2 OS [1]; 20 µM) | cell viability (U-2 OS [2]; 5 µM) | cell viability (U-2 OS [2]; 10 µM) | cell viability (U-2 OS [2]; 20 µM) | total intracellular glutathione (U-2 OS [3]; 5 µM) | total intracellular glutathione (U-2 OS [3]; 10 µM) | total intracellular glutathione (U-2 OS [3]; 20 µM) | cell painting activity score (U-2 OS [4]; 0.625 µM) | cell painting activity score (U-2 OS [4]; 1.25 µM) | cell painting activity score (U-2 OS [4]; 2.5 µM) | cell painting activity score (U-2 OS [4]; 5 µM) | cell painting activity score (U-2 OS [4]; 10 µM) | cell painting activity score (U-2 OS [4]; 20 µM) | relative cell count (U-2 OS [5]; 0.625 µM) | relative cell count (U-2 OS [5]; 1.25 µM) | relative cell count (U-2 OS [5]; 2.5 µM) | relative cell count (U-2 OS [5]; 5 µM) | relative cell count (U-2 OS [5]; 10 µM) | relative cell count (U-2 OS [5]; 20 µM) | AUC of culture confluence over time (U-2 OS [6]; 5 µM) | AUC of culture confluence over time (U-2 OS [6]; 10 µM) | AUC of culture confluence over time (U-2 OS [6]; 20 µM) | intracellular GSH:GSSG ratio (U-2 OS [1]; 40 µM) | intracellular GSH:GSSG ratio (U-2 OS [1]; 80 µM) | cell viability (U-2 OS [2]; 40 µM) | cell viability (U-2 OS [2]; 80 µM) | total intracellular glutathione (U-2 OS [3]; 40 µM) | total intracellular glutathione (U-2 OS [3]; 80 µM) | cell painting activity score (U-2 OS [4]; 40 µM) | cell painting activity score (U-2 OS [4]; 80 µM) | relative cell count (U-2 OS [5]; 40 µM) | relative cell count (U-2 OS [5]; 80 µM) | AUC of culture confluence over time (U-2 OS [6]; 40 µM) | AUC of culture confluence over time (U-2 OS [6]; 80 µM)
1 | O=C(Nc1nc(-c2ccccc2)ns1)c1cccs1 | 16.9 | 13 | 23.8 | 95.9 ± 3.4 | 93.5 ± 3.8 | 97.5 ± 1.8 | 99.8 ± 3.8 | 98.1 ± 5.4 | 103 ± 7.2 | 4.56 | 4.47 | 2.86 | 3.95 | 3.58 | 4.52 | 0.94 | 0.902 | 0.915 | 0.929 | 0.917 | 0.914 | 42.6 | 48.1 | 43.5 | – | – | – | – | – | – | – | – | – | – | – | –
2 | C=CC(=O)Nc1ccc(CN2C(=O)N(c3cc(OC)cc(OC)c3)Cc3cnc(Nc4ccc(N5CCN(C)CC5)cc4)nc32)cc1 | 13.6 | 16.7 | 12.9 | 91 ± 4.1 | 79.2 ± 3.3 | 69.2 ± 8.3 | 96.1 ± 3.3 | 93.1 ± 5 | 98.9 ± 4.6 | 6.58 | 8.57 | 8.77 | 10.2 | 12.1 | 22.1 | 0.983 | 0.946 | 0.955 | 0.951 | 0.83 | 0.673 | 44.2 | 37.3 | 27.8 | – | – | – | – | – | – | – | – | – | – | – | –
3 | CC(C)[C@H](C(=O)Nc1ccc(C(=O)NO)cc1)c1ccccc1 | 6.7 | 7.56 | – | 44.2 ± 4.6 | 44 ± 1.6 | 44 ± 1.6 | 40.8 ± 2.6 | 40.5 ± 3.5 | 39.6 ± 4.1 | 16.9 | 20.2 | 19.4 | 17.6 | 13.3 | 15.9 | 0.727 | 0.52 | 0.497 | 0.465 | 0.442 | 0.41 | 18.7 | 20 | 18.2 | – | – | – | – | – | – | – | – | – | – | – | –
4 | CC1(C)CCC2=C(O1)c1ccccc1C(=O)C2=O | 15.5 | 11.1 | 3.75 | 79.8 ± 7.4 | 57 ± 15 | 17 ± 33 | 71.8 ± 4.9 | 56.2 ± 3.8 | 6.31 ± 1.1 | 3.9 | 4.86 | 5.01 | 5.34 | 9.42 | 18.4 | 1.05 | 0.993 | 1.08 | 0.933 | 0.767 | 0.227 | 27 | 19.8 | 20.1 | – | – | – | – | – | – | – | – | – | – | – | –
5 | O=[N+]([O-])c1cc(Br)c2nsnc2c1Sc1ncnc2nc[nH]c12 | 9.74 | 2.76 | 4.35 | 29.6 ± 6.5 | 6.03 ± 3.7 | 0.936 ± 0.27 | 56.4 ± 8.3 | 34.6 ± 12 | 7.7 ± 3.1 | 5.04 | 8.02 | 7.08 | 16.2 | 17.9 | 17.8 | 0.89 | 0.788 | 0.814 | 0.205 | 0.0623 | 0.0543 | 12.5 | 14.1 | 18 | – | – | – | – | – | – | – | – | – | – | – | –
6 | Cn1c(=O)n(-c2ccc(C(C)(C)C#N)cc2)c2c3cc(-c4cnc5ccccc5c4)ccc3ncc21 | 23.9 | 22.6 | 29.4 | 68.1 ± 3.9 | 62.4 ± 1.9 | 63.2 ± 3.4 | 71.3 ± 4.7 | 70.8 ± 2.6 | 68.2 ± 2.1 | 11.8 | 12.3 | 12.8 | 12.8 | 12.6 | 12.8 | 0.853 | 0.819 | 0.802 | 0.83 | 0.788 | 0.765 | 31.4 | 28.4 | 27.6 | – | – | – | – | – | – | – | – | – | – | – | –
7 | O=C1/C(=C/c2ccc(O)c(Br)c2)CCC/C1=C\c1ccc(O)c(Br)c1 | 15.5 | 14 | 11.9 | 100 ± 4.4 | 95.1 ± 4.6 | 94.1 ± 5.6 | 113 ± 2.6 | 126 ± 4.8 | 120 ± 2.2 | 4.8 | 5.76 | 5.97 | 8.32 | 9.31 | 12.2 | 1.01 | 1.02 | 0.982 | 0.904 | 0.96 | 0.55 | 49.5 | – | – | 9.48 | 3.73 | 88.5 ± 5.9 | 11.9 ± 2.3 | 119 ± 3.6 | 13.4 ± 2.5 | – | – | – | – | – | –
8 | COc1cc2ncnc(Nc3ccc(F)c(Cl)c3)c2cc1NC(=O)/C=C/CN1CCCCC1 | 10.8 | 7.42 | 1.96 | 74.4 ± 5 | 59.5 ± 2.5 | 22.4 ± 5.3 | 81.2 ± 4.8 | 59.3 ± 3.2 | 18.3 ± 12 | 10.6 | 10.4 | 11.7 | 13.9 | 18.6 | 22.1 | 0.624 | 0.681 | 0.586 | 0.503 | 0.331 | 0.035 | 26.9 | 14.6 | 13.7 | – | – | – | – | – | – | – | – | – | – | – | –
9 | O=C(/C(C(N1CC2=CC=CC=C2)=O)=C/C3=C(C)C=C(O)C=C3C)N(CC4=CC=CC=C4)C1=O | 21.3 | 22.8 | 29.1 | 97 ± 6.9 | 98.1 ± 2.9 | 102 ± 6.1 | 99.8 ± 4.9 | 98.5 ± 2.1 | 104 ± 5.8 | 3.82 | 5.14 | 5.14 | 4.49 | 9.6 | 10.8 | 0.901 | 0.839 | 0.861 | 0.841 | 0.776 | 0.292 | 50.9 | 49.8 | 46.2 | 19.1 | 12.4 | 70 ± 23 | 14.7 ± 7.9 | 77.3 ± 11 | 27.7 ± 8 | 8.64 | 16.5 | 0.419 | 0.0657 | 34.6 | 12.1
10 | CC[C@]1(O)C[C@@H]2CN(CCc3c([nH]c4ccccc34)[C@@](C(=O)OC)(c3cc4c(cc3OC)N(C)[C@H]3[C@@](O)(C(=O)OC)[C@H](OC(C)=O)[C@]5(CC)C=CCN6CC[C@]43[C@@H]65)C2)C1 | 2.94 | 2.94 | 2.96 | 58.9 ± 5.4 | 57.8 ± 8.9 | 57.7 ± 2.6 | 60.6 ± 2.1 | 61.6 ± 7.3 | 60.5 ± 3.1 | 27.2 | 24.9 | 24.9 | 24.2 | 24.4 | 24.4 | 0.236 | 0.246 | 0.221 | 0.223 | 0.24 | 0.255 | 18.2 | 17.6 | 20 | – | – | – | – | – | – | – | – | – | – | – | –
11 | O=C(CCCCCCC(=O)Nc1ccccc1)NO | 8.04 | 6.39 | 4.82 | 55.2 ± 5.3 | 49.6 ± 3 | 44 ± 2 | 60.5 ± 3.5 | 47.6 ± 4.1 | 39.5 ± 5.2 | 9.26 | 11.1 | 12 | 12 | 17.1 | 14.8 | 1.01 | 0.936 | 0.838 | 0.776 | 0.491 | 0.438 | 20.3 | 17.9 | 18.6 | – | – | – | – | – | – | – | – | – | – | – | –
12 | CC1(C)CC[C@]2(C(=O)n3ccnc3)CC[C@]3(C)[C@H](C(=O)C=C4[C@@]5(C)C=C(C#N)C(=O)C(C)(C)[C@@H]5CC[C@]43C)[C@@H]2C1 | 3.45 | 4.45 | 0.635 | 43.9 ± 1.6 | 43.8 ± 5.2 | 94.4 ± 8.6 | 36.9 ± 4.2 | 38 ± 6.2 | 38.6 ± 5.8 | 17.6 | 23.5 | 35.7 | 33.9 | 32 | 26.6 | 0.329 | 0.22 | 0.121 | 0.0924 | 0.0552 | 0.0644 | 16 | 14.8 | 13.9 | – | – | – | – | – | – | – | – | – | – | – | –
